Measurements published in US6171786A, “Methods for preventing multidrug resistance in cancer cells” (priority 1996, dated 2001).
“Also recorded” adds a separate entry of the source. Read-outs that look alike come from different tables or passages of the source.

Legend:
[1] = tested on: MDR1 expression (P-glycoprotein); experiment: Induction of MDR1 expression by cytotoxic drugs (dye efflux, UIC2, cDNA-PCR); type: cell-based, human
Method: (§1) (Commercially-available kits (for example, from GIBCO/BRL, Gaithersburg, Md.) can be advantageously modified for making cDNA using random hexamers.) PCR is then performed using the following primers: […]
(§2) (where β2 M represents β2 microglobulin). PCR was performed for β2 M experiments under a regime consisting of 1 cycle comprising denaturation at 94° C. for 3 minutes, primer annealing at 60° C. for 30 seconds, and primer extension at 72° C. for 1 minute, followed by 19 cycles comprising denaturation at 94° C. for 30 seconds, primer annealing at 60° C. for 30 seconds, and primer extension at 72° C. for 1 minute, followed by a final cycle comprising denaturation at 94° C. for 30 seconds, primer annealing at 60° C. for 30 seconds, and primer extension at 72° C. for 5 minutes. MDR1 cDNA sequences were amplified using the identical protocol as for β2 M, but extending the amplification from 19 cycles to 25 cycles. In addition, the cDNA-PCR amplification protocol contained the following modifications: (i) Taq DNA polymerase was added to the PCR mixtures after initial heating of the samples to 94° C. (ii) The yield of the β2 -microglobulin-specific band, obtained after 22-28 cycles of PCR, was used as the primary criterion for equalizing the starting amounts of the cDNA templates in different preparations, in order to account for differential RNA degradation in cells subjected to different types of treatment. ^32 P-labeled PCR products were detected by autoradiography.
In particular PKC is activated by treatment with Ara-C. Therefore, experiments were performed to test whether Ara-C, which is not transported by P-glycoprotein, would have any effect on P-glycoprotein function in K562 leukemia cells.
Also assayed was whether drug-induced MDR1 expression was maintained after cytotoxic drug treatment. […] At different times, MDR1 expression in the surviving cells was analyzed by dye efflux and immunofluorescence labeling with UIC2 (FIG. 3C) or by cDNA-PCR (FIG. 4E).

MDR1 expression [2] = experiment: Inhibition of cytotoxic drug-induced MDR1 expression by inhibitors of NF-κB activation; type: cell-based, human; settings: H9; inhibitor 10 mM
MDR1 expression [3] = experiment: Inhibition of cytotoxic drug-induced MDR1 expression by protein kinase inhibitors (cDNA-PCR); settings: for inhibition of MDR1 induction by cytotoxic drugs: concentration not stated
Method: Cells were plated in 6-well Falcon tissue culture plates at 3,300 cells per well, and incubated in the appropriate concentrations of drugs. Each of the protein kinase inhibitors to be tested were added at the appropriate final concentration 45 minutes prior to MDR1 induction by the addition of Ara-C or TPA, with the exception of herbimycin A, which was added 12 hours prior to Ara-C or TPA, and tyrphostins A25 and B46, which were each added 16 hours prior to MDR1 induction by the addition of Ara-C or TPA. Cells were incubated overnight (TPA) or for 10 hours (Ara-C) at 37° C./ 5% CO2 after the addition of the MDR1 inducing agents before harvesting for cDNA-PCR analysis.
In addition, the analysis of certain drugs imposed added requirements. For experiments using calphostin C, cells were incubated under direct white light illumination. For experiments using D,L-threo-sphingosine, the cell culture medium was pre-treated with the appropriate concentration of the drug for one hour at 37° C. with continuous gentle mixing. After this pretreatment, cells were resuspended in media supplemented with drug and incubated for 45 minutes as described above.
To further evaluate the capacity of protein kinase inhibitors to suppress MDR1 induction by cytotoxic drugs and PKC agonists, H-9 human T-cell leukemia cells were used in cDNA-PCR assays to examine induced MDR1 mRNA expression levels in the presence of protein kinase inhibitors.

MDR1 expression [4] = experiment: Inhibition of cytotoxic drug-induced MDR1 expression by cytoplasmic calcium antagonists and calmodulin inhibitors; type: cell-based, human; settings: H9; for inhibition of AraC-induced MDR1 gene expression: 10 μM calmidazolium chloride, 25 μM AraC
Method: H9 cells were incubated as described above in the presence of the following cytotoxic drugs: Ara C (at a concentration of 25 μM), Adriamycin (2 μM), bleomycin (100 μg/ml), 2-deoxyglucose (10 mM) and nocodazole (2.5 μM). In parallel, cultures of H9 cells were incubated in the presence of each of these cytotoxic drugs and of a highly specific chelator of intracellular calcium ion, 1, 2-bis(o-aminophenoxy)-ethane-N,N,N',N'-tetraacetic acid, tetra(acetoxymethyl)-ester (BAPTA/AM) at a concentration of 5 μM for 10 hrs. under the conditions described above. The inhibitor was added 45 min. prior to the addition of each of the MDR1 inducing agents. cDNA-PCR analysis, including gel electrophoresis and autoradiography as described above, was performed for each culture after drug treatment in the presence or absence of this chelator.
H9 cells were incubated as above with 25 μM AraC in the presence or absence of 10 μM calmidazolium chloride, and cDNA-PCR analysis as described above was performed.

[5] = tested on: MDR1 expression (P-glycoprotein); experiment: MDR1/P-glycoprotein expression in human cells treated with TPA, DOG, other agents (Rh123 accumulation, UIC2 staining, cDNA-PCR); type: cell-based
Method: KG1 cell line was maintained in Iscove's modified Dulbecco medium with 20% fetal calf serum (FCS) and 2 mM L-glutamine, 100 units/mL penicillin and 100 μg/mL streptomycin (GIBCO Laboratories, Grand Island, N.Y.).
PBL were treated with 1 ng/mL TPA; H9 and K562 cells with 10 ng/mL TPA; KG1a and KG1 cells with 100 ng/mL TPA and the other cell lines with 10 ng/mL TPA.
Mouse IgG2a isotype control antibody was obtained from Sigma. For staining of PBL with UIC2 mAb or isotype control, 10^6 cells were stained at 4° C. with 10 μg of the antibody for 30 minutes and, after two washes, stained for 30 minutes with 10 μg of FITC-conjugated goat anti-mouse IgG2a antibody (Fisher Scientific, Fairlawn, N.J.), diluted 1:2 with PBS plus 2% FCS. Cells were then washed twice with ice-cold PBS plus 2% FCS, stained with PI and kept on ice until analysis. Essentially the same protocol was used for staining of other cell types except that 2 μg of the secondary antibody were used per 10^6 cells. In some experiments, phycoerythrine (PE)-conjugated goat anti-mouse IgG2a was used as the secondary antibody; no PI was added in such cases.
as §1, §2
A functional assay was used to detect changes in P-glycoprotein activity in human PBL treated with different agents that induce lymphoid differentiation or activation, based on flow cytometric analysis of cellular accumulation of Rh123, which is a P-glycoprotein-transported fluorescent mitochondrial dye. In this assay, cells expressing little or no P-glycoprotein stain brightly with Rh123, whereas cells with higher levels of P-glycoprotein activity appear Rh123-dull. […] Since the best-known cellular effect of TPA is the stimulation of PKC, DOG (a cell-permeable diacylglycerol and a physiological stimulant of PKC) was also tested to determine its effects on Rh123 accumulation in PBL.

[6] = human leukemia and solid-tumor derived cell lines, short-term exposure
[7] = 50-100 μM tyrphostin, H-9 cells

SMILES: O=c1[nH]cc(F)c(=O)[nH]1 [5-fluorouracil]
- MDR1 induction [1]: MDR1 induction, both at the mRNA and at the protein levels, was observed

SMILES: CC(=O)Oc1ccccc1C(=O)O [aspirin, acetylsalicylic acid]
- inhibition of MDR1 induction by Adriamycin (2 μM) (MDR1 expression [2]): completely abrogate induction of MDR1 gene expression
- inhibition of MDR1 induction by Ara C (25 μM) (MDR1 expression [2]): completely abrogate induction of MDR1 gene expression; also recorded: complete suppression of AraC-induced MDR1 expression

SMILES: N.N.[Cl][Pt][Cl] [cisplatin]
- Rh123 or DiOC2(3) efflux by treated cells ([1]; K562): 3-10%
- MDR1 mRNA expression ([1]; K562, cDNA-PCR): induce MDR1 mRNA expression
- MDR1 induction [1, 6]: MDR1 induction, both at the mRNA and at the protein levels, was observed

SMILES: CN(Cc1cnc2nc(N)nc(N)c2n1)c1ccc(C(=O)N[C@@H](CCC(=O)O)C(=O)O)cc1 [methotrexate]
- MDR1 induction [1]: MDR1 induction, both at the mRNA and at the protein levels, was observed
- maintenance of MDR1 expression after removal of drug [1]: maintained for a least several weeks

SMILES: CC1CNCCN1S(=O)(=O)c1cccc2cnccc12 (stereo not shown) [H7]
- prevention of MDR1 induction by chemotherapeutic drugs (MDR1 expression [3]): prevent MDR1 induction by chemotherapeutic drugs
- inhibition of MDR1 induction by cytotoxic drugs (MDR1 expression [3]): capable of inhibiting MDR1 induction by cytotoxic drugs

SMILES: NC(=O)NO [hydroxyurea]
- MDR1 induction [1]: MDR1 induction, both at the mRNA and at the protein levels, was observed
- MDR1 mRNA expression [1]: induce MDR1 mRNA expression
- Rh123 or DiOC2(3) efflux by treated cells ([1]; K562): 3-10%

SMILES: N#CC(C#N)=Cc1cc(O)c(O)c(O)c1 [tyrphostin A25]
- inhibition of Ara-C induced MDR1 expression (MDR1 expression [3]; [7]): strongly inhibit Ara-C induced MDR1 expression; also recorded: inhibit Ara-C induced MDR1 expression

SMILES: COc1c(CC(C)OC(=O)Oc2ccc(O)cc2)c2c3c(CC(C)OC(=O)c4ccccc4)c(OC)c(=O)c4c(O)cc(OC)c(c5c(OC)cc(O)c(c1=O)c52)c43 (stereo not shown) [calphostin C]
- inhibitory capacity on Ara-C induced MDR1 expression (MDR1 expression [3]; 0.1 μM calphostin C + white light): greatly reduced
- inhibition of Ara-C induced MDR1 expression (MDR1 expression [3]; 1 μM calphostin C + white light): capable of inhibiting MDR1 expression; also recorded: prevent MDR1 induction by chemotherapeutic drugs
- inhibition of MDR1 induction by cytotoxic drugs (MDR1 expression [3]): capable of inhibiting MDR1 induction by cytotoxic drugs

SMILES: COC1C=CC=C(C)C(=O)NC2=CC(=O)C=C(C2=O)C(OC)C(C)CC(OC)C(OC)C(C)C=C(C)C1OC(N)=O (stereo not shown) [herbimycin A]
- inhibition of Ara-C induced MDR1 expression (MDR1 expression [3]; 0.35-3 μM herbimycin A): little or no capacity to inhibit Ara-C induced MDR1 expression; also recorded: ineffective at inhibiting MDR1 induction by Ara-C

SMILES: COc1cc([C@@H]2c3cc4c(cc3[C@@H](O[C@@H]3O[C@@H]5CO[C@@H](C)O[C@H]5[C@H](O)[C@H]3O)[C@H]3COC(=O)[C@H]23)OCO4)cc(OC)c1O [etoposide]
- MDR1 induction [1]: MDR1 induction, both at the mRNA and at the protein levels, was observed

SMILES: CC(=O)OCOC(=O)CN(CC(=O)OCOC(C)=O)c1ccccc1OCCOc1ccccc1N(CC(=O)OCOC(C)=O)CC(=O)OCOC(C)=O [BAPTA/AM, 1,2-bis(o-aminophenoxy)ethane-N,N,N',N'-tetraacetic acid, tetra(acetoxymethyl)ester]
- inhibition of MDR1 induction by 2-deoxyglucose (10 mM) (MDR1 expression [4]; 5 μM BAPTA/AM): completely abrogate the induction of MDR1 expression
- inhibition of MDR1 induction by Adriamycin (2 μM) (MDR1 expression [4]; 5 μM BAPTA/AM): completely abrogate the induction of MDR1 expression
- inhibition of MDR1 induction by Ara C (25 μM) (MDR1 expression [4]; 5 μM BAPTA/AM): completely abrogate the induction of MDR1 expression
- inhibition of MDR1 induction by bleomycin (100 μg/ml) (MDR1 expression [4]; 5 μM BAPTA/AM): completely abrogate the induction of MDR1 expression
- inhibition of MDR1 induction by different cytotoxic agents (MDR1 expression [4]; 5 μM BAPTA/AM): completely abrogated the induction of MDR1 expression
- inhibition of MDR1 induction by nocodazole (2.5 μM) (MDR1 expression [4]; 5 μM BAPTA/AM): completely abrogate the induction of MDR1 expression
- time prior to addition of MDR1 inducers within which inhibitory effect was detectable (MDR1 expression [4]; BAPTA/AM): ≤ 3 h

SMILES: CCCCCCCCCCCCC/C=C/[C@H](O)[C@@H](N)CO (relative stereo) [D,L-threo-sphingosine]
- inhibition of Ara-C induced MDR1 expression (MDR1 expression [3]; 5 μM D,L-threo-sphingosine): little or no capacity to inhibit Ara-C induced MDR1 expression; also recorded: ineffective
- Inhibition of Ara-C induced MDR1 expression (MDR1 expression [3]; 5 μM, H-9, 25 μM Ara-C 10 h): -

SMILES: COc1cccc2c1C(=O)c1c(O)c3c(c(O)c1C2=O)C[C@@](O)(C(=O)CO)C[C@@H]3O[C@H]1C[C@H](N)[C@H](O)[C@H](C)O1 [Adriamycin, Doxorubicin]
- Rh123 or DiOC2(3) efflux by treated cells ([1]; K562): 3-10%
- MDR1 mRNA expression ([1]; K562, cDNA-PCR): induce MDR1 mRNA expression
- maintenance of MDR1 expression after removal of drug ([1]; K562 subpopulation, treated 3-5 days then drug-free): maintained for a least several weeks
- MDR1 mRNA expression ([1]; KB-3-1 epidermoid carcinoma): MDR1 mRNA expression was induced
- MDR1 induction [1, 6]: MDR1 induction, both at the mRNA and at the protein levels, was observed

SMILES: Clc1ccc(C(c2ccc(Cl)cc2)n2cc[n+](CC(OCc3ccc(Cl)cc3Cl)c3ccc(Cl)cc3Cl)c2)cc1 (stereo not shown) [calmidazolium chloride]
- inhibition of AraC-induced MDR1 gene expression (MDR1 expression [4]): inhibit AraC-induced MDR1 gene expression
- inhibition of AraC-induced MDR1 gene expression (MDR1 expression [4]; listed as Calmidazolium chloride): efficiently abrogate AraC induction of MDR1 expression

SMILES: COc1cccc2c1C(=O)c1c(O)c3c(c(O)c1C2=O)C[C@@](O)(C(C)=O)C[C@@H]3O[C@H]1C[C@H](N)[C@H](O)[C@H](C)O1 [daunorubicin]
- MDR1 induction [1]: MDR1 induction, both at the mRNA and at the protein levels, was observed
- MDR1 mRNA expression [1]: induce MDR1 mRNA expression
- Rh123 or DiOC2(3) efflux by treated cells [1]: 3-10%

SMILES: O=c1c(-c2ccc(O)cc2)coc2cc(O)cc(O)c12 [genistein]
- Inhibition of Ara-C induced MDR1 expression (MDR1 expression [3]): +
- inhibition of Ara-C induced MDR1 expression (MDR1 expression [3]): only weakly inhibited Ara-C induced MDR1 expression

SMILES: CCCCCCCC(=O)OCC(CO)OC(=O)CCCCCCC (stereo not shown) [DOG, 1,2-dioctanoylglycerol]
- effect on P-glycoprotein activity (Rh123 accumulation) ([5]; human PBL): decrease Rh123 accumulation
- MDR1 gene expression ([5]; normal human PBL and leukemia/solid tumor cell lines): increase MDR1 gene expression

SMILES: N#CC(=Cc1ccc(O)c(O)c1)C(=O)NCCCc1ccccc1 [tyrphostin B46]
- inhibition of Ara-C induced MDR1 expression (MDR1 expression [3]; [7]): strongly inhibit Ara-C induced MDR1 expression; also recorded: inhibit Ara-C induced MDR1 expression
